Publication PMC11324297, “CDKL3 is a targetable regulator of cell cycle progression in cancers” (The Journal of Clinical Investigation, 2024)

What was measured:
[1] = system: U2OS; experiment: cells; design: tumour cell growth suppression, dose response, 24 h; conditions: Homo sapiens, 24 h
Procedure: (§1) On the basis of a previous publication, a potential CDKL3 inhibitor candidate caught our attention. […] Thus, we intended to generate an efficient CDKL3 inhibitor based on this chemical backbone for cell cycle arrest. As the first step, the original compound (ASC67) was synthesized, and the performance was evaluated ([50]). The addition of ASC67 could gradient-dependently diminish the phosphorylation of Rb by CDKL3 while not influencing CDK4 or CDK2 in vitro (Figure 8B). The effectiveness of this chemical was then evaluated using a variety of cancer cell lines, including estrogen-responsive (ER^+) breast cancer, for which palbociclib is administrated clinically ([51]). […] As a direct comparison, the clinically approved CDK4/6 inhibitor had IC50 values ranging from 1 to 5 μM in different cell lines (Figure 8, C–F, and Supplemental Figure 6, A–F) ([47], [52]–[55]). This information made it evident that ASC67 holds considerable promise in cancer treatment and can be used as a backbone compound for further optimization. Chemical treatments Cdk1/2 Inhibitor III was dissolved in DMSO with a concentration of 25mM as stock solution. Cells were treated at a final concentration of 1.2μM. 5μM was used for in vitro kinase assay. Palbociclib was dissolved in DMSO with a concentration of 100mM as stock solution. Cells were treated with Palbociclib at a final concentration of 0.8μM. 5μM was used for in vitro kinase assay. Thymidine was dissolved in ddH2O with a concentration of 200mM. Cells were treated with Thymidine at a final concentration of 2mM. ASC67 was dissolved in DMSO with a concentration of 300mM as stock solution. For IC50 assay, cells were treated at a concentration range from 0 to 300μM. For in vitro kinase assay, the concentration ranging from 0 to 0.5μM was used. The inhibitor C3I-22 (HZ1) was dissolved in DMSO with a concentration of 300mM as stock solution. For IC50 assay, cells were treated with a concentration range from 0 to 300μM. For in vitro kinase assay, the concentration ranging from 0 to 0.1μM was used. Organoids derived from colon cancer patients were treated with a concentration range from 0 to 5μM. Balb/cA-nude and C57BL/6J-Apcmin/+ mice were treated with a concentration of 1mg/kg (suspended in PBS) through oral gavage. Other C3I inhibitors were dissolved in DMSO with a concentration of 200mM as stock solution. In vitro protein purification GST-tagged proteins were transformed into E. coli BL21 competent cells, and then protein expression was induced by adding IPTG (Beyotime Biotechnology) at 18°C for 6 to 10 hours. The bacterial culture was centrifuged (600xg, 10 min, 4°C), and the pellets were resuspended in 20mL lysis buffer (50mM Tris-HCl, 300mM NaCl, and 10% (v/v) glycerol, 1mM [compound left out], pH 7.9) and sonicated with 50% power on a SCIENTZ JY92-IIN sonicator for 20 minutes (5 seconds per time, with an interval of 5 seconds).

[2] = system: HeLa; experiment: cells; design: tumour cell growth suppression, dose response, 24 h; conditions: Homo sapiens, 24 h
Procedure: as §1

[3] = system: MDA-MB-231; experiment: cells; design: tumour cell growth suppression, dose response, 24 h; conditions: Homo sapiens, MDA-MB-231, 24 h
Procedure: as §1

[4] = system: U2OS; experiment: cells; design: tumour cell growth suppression, dose response, 72 h; conditions: Homo sapiens, 72 h
Procedure: as §1

[5] = system: HeLa; experiment: cells; design: tumour cell growth suppression, dose response, 72 h; conditions: Homo sapiens, 72 h
Procedure: as §1

[6] = system: MDA-MB-231; experiment: cells; design: tumour cell growth suppression, dose response, 72 h; conditions: Homo sapiens, MDA-MB-231, 72 h
Procedure: as §1

[7] = system: DLD-1; experiment: cells; design: tumour cell growth suppression, dose response, 24 h; conditions: Homo sapiens, 24 h, parental cells
Procedure: as §1

[8] = system: DLD-1; experiment: cells; design: tumour cell growth suppression, dose response, 72 h; conditions: Homo sapiens, 72 h, parental cells
Procedure: as §1

[9] = system: MCF7; experiment: cells; design: tumour cell growth suppression, dose response, 24 h; conditions: Homo sapiens, 24 h, parental cells
Procedure: as §1

[10] = system: T47D; experiment: cells; design: tumour cell growth suppression, dose response, 24 h; conditions: Homo sapiens, 24 h, parental cells
Procedure: as §1

[11] = system: MCF7; experiment: cells; design: tumour cell growth suppression, dose response, 72 h; conditions: Homo sapiens, 72 h, parental cells
Procedure: as §1

[12] = system: T47D; experiment: cells; design: tumour cell growth suppression, dose response, 72 h; conditions: Homo sapiens, 72 h, parental cells
Procedure: as §1

[13] = molecular target: Stub1 (UniProt Q9UNE7); experiment: co-immunoprecipitation; conditions: reference: CDK4 wild type; sites T172
[14] = molecular target: UBE3A (UniProt Q05086); experiment: co-immunoprecipitation; conditions: reference: CDK4 wild type; sites T172
[15] = molecular target: Trim28 (UniProt Q13263); experiment: co-immunoprecipitation; conditions: reference: CDK4 wild type; sites T172

Compound: N#CCc1ccc(Nc2nccc(Nc3cc(C4CCCC4)n[nH]3)n2)cc1 [ASC67]
- IC50 [1]: 1.81 µM
- IC50 [2]: 0.954 µM
- IC50 [3]: 1.83 µM
- IC50 [4]: 0.998 µM
- IC50 [5]: 1.55 µM
- IC50 [6]: 0.381 µM

Compound: CC(=O)c1ccc(Nc2nccc(Nc3cc(C4CCCC4)n[nH]3)n2)cc1 [C3I-22, HZ1]
- IC50 ([1]; parental cells): 1.32 µM
- IC50 [7]: 0.6 µM
- IC50 [4]: 0.348 µM
- IC50 ([4]; parental cells): 0.415 µM
- IC50 [8]: 0.147 µM

Compound: O=C(O)c1ccc(Nc2nccc(Nc3cc(C4CCCC4)n[nH]3)n2)cc1 [C3I-22-1, 4-((4-((3-cyclopentyl-1H-pyrazol-5-yl)amino)pyrimidin-2-yl)amino)benzoic acid]
- IC50 [4]: 38.8 µM

Compound: CC(=O)c1c(C)c2cnc(Nc3ccc(N4CCNCC4)cn3)nc2n(C2CCCC2)c1=O [palbociclib]
- IC50 [1]: 3.52 µM
- IC50 [9]: 2.88 µM
- IC50 [2]: 4.24 µM
- IC50 [3]: 5.2 µM
- IC50 [10]: 2.15 µM
- IC50 [11]: 2.57 µM
- IC50 [12]: 1.86 µM

Compound: CDK4 (from UniProt P11802) CDK4 T172A
- binding against the reference [13]: stronger
- binding against the reference [14]: stronger
- binding against the reference [15]: stronger
